In ChEMBL document CHEMBL1201862, “PubChem BioAssay data set” (2004):
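Step 1: Grow cells in 96-well plates. Step 2: Expose to compound for 48 hours at 5 concentrations. Step 3: Interpolate endpoints linearly; if unreached, use highest concentration. GI50 marks 50% less growth.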 Activity calls are given as the source filed them. Rule as the data show it: active = GI50 up to about 1.1 µM and inactive = higher.

Experiments:
Assay in all cases: NCI anticancer screen, dose series, 48 h
ACHN = test system: ACHN
CAKI-1 = test system: CAKI-1
DMS-273 = test system: DMS-273
HL-60 = test system: HL-60
KM-20L2 = test system: KM-20L2
LOX IMVI = test system: LOX IMVI
M14 = test system: M14
NCI-H226 = test system: NCI-H226
SR = test system: SR
M19-MEL = test system: M19-MEL
SNB-78 = test system: SNB-78
A498 = test system: A498
SF-295 = test system: SF-295
DU-145 = test system: DU-145
Hs-578T = test system: Hs-578T
MCF7 = test system: MCF7
MDA-MB-435 = test system: MDA-MB-435
NCI/ADR-RES = test system: NCI/ADR-RES
PC-3 = test system: PC-3
T47D = test system: T47D

Row | Compound | GI50 (ACHN) | GI50 (CAKI-1) | GI50 (DMS-273) | GI50 (HL-60) | GI50 (KM-20L2) | GI50 (LOX IMVI) | GI50 (M14) | GI50 (NCI-H226) | GI50 (SR) | GI50 (M19-MEL) | GI50 (SNB-78) | GI50 (A498) | GI50 (SF-295) | GI50 (DU-145) | GI50 (Hs-578T) | GI50 (MCF7) | GI50 (MDA-MB-435) | GI50 (NCI/ADR-RES) | GI50 (PC-3) | GI50 (T47D)
1 | CCN(CC)C(=O)c1cc(OC(C)C)ccc1-c1c(C)cc(OC(C)C)c(OC)c1OC | 57.8 µM (inactive) | 84.5 µM (inactive) | 41.6 µM (inactive) | 45.9 µM (inactive) | 74 µM (inactive) | 58.9 µM (inactive) | 79.4 µM (inactive) | 98.2 µM (inactive) | 33.6 µM (inactive) | – | – | – | – | – | – | – | – | – | – | –
2 | O=C1CCC(c2ccccc2)=NN1c1nsc2ccccc12 | > 100 µM (inactive) | – | 95.9 µM (inactive) | > 100 µM (inactive) | > 100 µM (inactive) | > 100 µM (inactive) | > 100 µM (inactive) | – | 58.9 µM (inactive) | > 100 µM (inactive) | > 100 µM (inactive) | – | – | – | – | – | – | – | – | –
3 | Cc1ccc(CCC(=O)C(=O)O)s1 | > 100 µM (inactive) | 30.9 µM (inactive) | > 100 µM (inactive) | > 100 µM (inactive) | > 100 µM (inactive) | – | > 100 µM (inactive) | – | > 100 µM (inactive) | > 100 µM (inactive) | > 100 µM (inactive) | 89.5 µM (inactive) | > 100 µM (inactive) | – | – | – | – | – | – | –
4 | CCCS(=O)(=O)O | > 100 µM (inactive) | > 100 µM (inactive) | – | > 100 µM (inactive) | – | > 100 µM (inactive) | > 100 µM (inactive) | > 100 µM (inactive) | > 100 µM (inactive) | – | – | > 100 µM (inactive) | > 100 µM (inactive) | > 100 µM (inactive) | > 100 µM (inactive) | > 100 µM (inactive) | > 100 µM (inactive) | > 100 µM (inactive) | > 100 µM (inactive) | > 100 µM (inactive)
5 | Clc1ccc(-c2nnc(-c3nsc4ccccc34)o2)cc1 | 25.1 µM (inactive) | – | 26.6 µM (inactive) | – | 46.2 µM (inactive) | 40.1 µM (inactive) | 47.2 µM (inactive) | – | > 10 µM (inactive) | > 100 µM (inactive) | 46.2 µM (inactive) | – | – | – | – | – | – | – | – | –
6 | COc1cc2ccc(CC(N)=O)cc2cc1OC | – | – | > 100 µM (inactive) | – | > 100 µM (inactive) | > 100 µM (inactive) | > 100 µM (inactive) | > 100 µM (inactive) | – | > 100 µM (inactive) | > 100 µM (inactive) | – | > 100 µM (inactive) | – | – | – | – | – | – | –
7 | O=C(NC1C/C(=N/O)c2c(Br)sc(Br)c21)C(F)(F)F (configuration not stated) | 34 µM (inactive) | 13.8 µM (inactive) | – | 32.4 µM (inactive) | – | 25.5 µM (inactive) | 36.2 µM (inactive) | 18.4 µM (inactive) | – | – | – | 24.5 µM (inactive) | 31 µM (inactive) | 27.5 µM (inactive) | 11.2 µM (inactive) | 37.6 µM (inactive) | 47.2 µM (inactive) | 19.3 µM (inactive) | 13.9 µM (inactive) | 20.7 µM (inactive)
8 | O=C1CN2C(Cl)(Cl)C2(c2ccccc2)c2cc(Cl)ccc2N1CC1CC1 (configuration not stated) | 23.8 µM (inactive) | 23.3 µM (inactive) | 25.5 µM (inactive) | – | 23.4 µM (inactive) | 17.3 µM (inactive) | 20.1 µM (inactive) | 21.3 µM (inactive) | 29.2 µM (inactive) | 35.4 µM (inactive) | – | – | 9.46 µM (inactive) | – | – | – | – | – | – | –
9 | CC(SC(=S)N1CCOCC1)C(=O)Nc1nnc(-c2ccc(Cl)cc2)o1 (configuration not stated) | 51.2 µM (inactive) | – | – | – | – | 28.8 µM (inactive) | 36 µM (inactive) | 67.8 µM (inactive) | 8.07 µM (inactive) | – | – | 60.5 µM (inactive) | – | 79.6 µM (inactive) | > 100 µM (inactive) | 32.3 µM (inactive) | 40.2 µM (inactive) | 23.6 µM (inactive) | 38.5 µM (inactive) | 51.3 µM (inactive)
10 | Cc1nnc(Nc2ccc(Cl)cc2)o1 | > 10 µM (inactive) | > 10 µM (inactive) | – | > 10 µM (inactive) | – | > 10 µM (inactive) | > 10 µM (inactive) | > 10 µM (inactive) | – | – | – | > 10 µM (inactive) | > 10 µM (inactive) | > 10 µM (inactive) | > 10 µM (inactive) | > 10 µM (inactive) | > 10 µM (inactive) | > 10 µM (inactive) | > 10 µM (inactive) | > 10 µM (inactive)
11 | C=CC(=O)NC(O)(C(=O)OCC)C(F)(F)F (configuration not stated) | > 100 µM (inactive) | > 100 µM (inactive) | – | 35 µM (inactive) | – | > 100 µM (inactive) | > 100 µM (inactive) | > 100 µM (inactive) | 64.4 µM (inactive) | – | – | – | > 100 µM (inactive) | > 100 µM (inactive) | > 100 µM (inactive) | > 100 µM (inactive) | > 100 µM (inactive) | > 100 µM (inactive) | > 100 µM (inactive) | > 100 µM (inactive)
12 | O=c1ccc2cc3ccc4cccc5ccc(c2o1)c3c45 | 12.5 µM (inactive) | > 100 µM (inactive) | – | > 100 µM (inactive) | > 100 µM (inactive) | 12.1 µM (inactive) | > 100 µM (inactive) | 19.7 µM (inactive) | – | > 100 µM (inactive) | > 100 µM (inactive) | 16 µM (inactive) | 33 µM (inactive) | – | – | – | – | – | – | –
13 | CO[C@H]1C=C[C@@]23c4cc5c(cc4CO[C@]2(O)CN(C)[C@H]3C1)OCO5 | > 100 µM (inactive) | > 100 µM (inactive) | – | > 100 µM (inactive) | – | > 100 µM (inactive) | > 100 µM (inactive) | > 100 µM (inactive) | – | – | – | > 100 µM (inactive) | > 100 µM (inactive) | > 100 µM (inactive) | > 100 µM (inactive) | > 100 µM (inactive) | > 100 µM (inactive) | > 100 µM (inactive) | > 100 µM (inactive) | > 100 µM (inactive)
14 | COc1cc([C@@H]2c3cc4c(cc3[C@@H](c3c(O)cc(O)c5c3O[C@H](c3ccc(O)c(O)c3)[C@@H](O)C5)[C@H]3COC(=O)[C@H]23)OCO4)cc(OC)c1O | > 100 µM (inactive) | > 100 µM (inactive) | – | 27 µM (inactive) | – | > 100 µM (inactive) | > 100 µM (inactive) | – | – | – | – | > 100 µM (inactive) | > 100 µM (inactive) | > 100 µM (inactive) | > 100 µM (inactive) | > 100 µM (inactive) | > 100 µM (inactive) | > 100 µM (inactive) | > 100 µM (inactive) | > 100 µM (inactive)
15 | Cc1ccc(NC(=S)NNC(=O)c2cc(-c3ccccc3)nc3ccccc23)cc1C | 25.2 µM (inactive) | 59.7 µM (inactive) | – | – | – | – | 15.5 µM (inactive) | 34.8 µM (inactive) | 14.6 µM (inactive) | – | – | 16.6 µM (inactive) | 12.9 µM (inactive) | 22.4 µM (inactive) | 36.1 µM (inactive) | 12.4 µM (inactive) | 24 µM (inactive) | 23 µM (inactive) | 18.7 µM (inactive) | 0.853 µM (active)
16 | CC(C)OP(=O)(OC(C)C)c1nn(-c2ccc([N+](=O)[O-])cc2)c(=N)s1 | 80.5 µM (inactive) | > 100 µM (inactive) | – | 68.1 µM (inactive) | > 100 µM (inactive) | – | > 100 µM (inactive) | – | – | > 100 µM (inactive) | – | > 100 µM (inactive) | > 100 µM (inactive) | – | – | – | – | – | – | –
17 | O=C1C=CC=C/C1=C1/SC(c2ccccc2)=C(O)N1c1ccccc1 | > 100 µM (inactive) | > 100 µM (inactive) | > 100 µM (inactive) | – | > 100 µM (inactive) | – | – | > 100 µM (inactive) | – | > 100 µM (inactive) | > 100 µM (inactive) | – | > 100 µM (inactive) | – | – | – | – | – | – | –
18 | Cc1cc2c(ccc[n+]2[O-])[n+]([O-])c1 | > 100 µM (inactive) | > 100 µM (inactive) | > 100 µM (inactive) | > 100 µM (inactive) | > 100 µM (inactive) | – | > 100 µM (inactive) | > 100 µM (inactive) | > 100 µM (inactive) | > 100 µM (inactive) | > 100 µM (inactive) | – | > 100 µM (inactive) | – | – | – | – | – | – | –
19 | CC1C(=O)N(c2ccccc2)NC12CCCc1ccccc12 (configuration not stated) | > 100 µM (inactive) | > 100 µM (inactive) | – | > 100 µM (inactive) | – | > 100 µM (inactive) | > 100 µM (inactive) | > 100 µM (inactive) | > 100 µM (inactive) | – | – | > 100 µM (inactive) | > 100 µM (inactive) | > 100 µM (inactive) | > 100 µM (inactive) | > 100 µM (inactive) | > 100 µM (inactive) | > 100 µM (inactive) | > 100 µM (inactive) | > 100 µM (inactive)
20 | COc1ccc(C2N(NC(=O)c3ccncc3)C(=O)CS2(=O)=O)cc1F (configuration not stated) | > 100 µM (inactive) | > 100 µM (inactive) | > 100 µM (inactive) | > 100 µM (inactive) | – | 60.4 µM (inactive) | > 100 µM (inactive) | > 100 µM (inactive) | > 100 µM (inactive) | – | > 100 µM (inactive) | > 100 µM (inactive) | > 100 µM (inactive) | – | – | – | – | – | – | –
21 | COC1OC(CS(=O)(=O)O)C(O)C(O)C1O (configuration not stated) | – | > 100 µM (inactive) | – | > 100 µM (inactive) | – | > 100 µM (inactive) | > 100 µM (inactive) | > 100 µM (inactive) | > 100 µM (inactive) | – | – | > 100 µM (inactive) | > 100 µM (inactive) | > 100 µM (inactive) | > 100 µM (inactive) | > 100 µM (inactive) | > 100 µM (inactive) | > 100 µM (inactive) | > 100 µM (inactive) | > 100 µM (inactive)
22 | C/C(=C1\N=C(c2ccccc2)OC1=O)c1ccccc1 | > 100 µM (inactive) | > 100 µM (inactive) | – | > 100 µM (inactive) | – | > 100 µM (inactive) | > 100 µM (inactive) | > 100 µM (inactive) | > 100 µM (inactive) | – | – | > 100 µM (inactive) | > 100 µM (inactive) | > 100 µM (inactive) | > 100 µM (inactive) | > 100 µM (inactive) | > 100 µM (inactive) | – | > 100 µM (inactive) | > 100 µM (inactive)
